Results reported in patent US20120004215A1 (priority 2009, published 2012).

Molecular target: α7-subtype of nicotinic receptors (Mus musculus, UniProt P49582)
Assay type: in vivo, mice
Settings: ex vivo, mouse hippocampal membranes; dose inhibiting specific binding of 3H-α-bungarotoxin (1 nM) by 50%

Chain of α7-subtype of nicotinic receptors (P49582 23-502): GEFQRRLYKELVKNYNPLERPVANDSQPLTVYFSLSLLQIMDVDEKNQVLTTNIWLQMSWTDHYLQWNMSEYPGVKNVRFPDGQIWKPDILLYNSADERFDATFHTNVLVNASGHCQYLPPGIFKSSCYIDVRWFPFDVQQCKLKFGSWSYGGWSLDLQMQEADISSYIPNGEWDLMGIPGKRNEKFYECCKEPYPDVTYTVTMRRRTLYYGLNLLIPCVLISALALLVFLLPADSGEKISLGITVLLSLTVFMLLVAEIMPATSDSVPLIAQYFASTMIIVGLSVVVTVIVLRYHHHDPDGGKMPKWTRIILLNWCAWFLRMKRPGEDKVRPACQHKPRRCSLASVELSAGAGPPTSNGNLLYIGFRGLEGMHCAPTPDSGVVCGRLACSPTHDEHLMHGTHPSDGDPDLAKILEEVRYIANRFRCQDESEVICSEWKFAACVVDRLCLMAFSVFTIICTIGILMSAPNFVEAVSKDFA

## O=c1c2ccccc2nnn1-c1cnc(N2CC[N+]3([O-])CCC2CC3)nc1 [Compound 1, 3-[2-(1-Oxy-1,4-diaza-bicyclo[3.2.2]non-4-yl)-pyrimidin-5-yl]-3H-benzo[d][1,2,3]-triazin-4-one]
  EC50 (mg/kg), Inhibition of 3H-α-Bungarotoxine Binding: 9.4 mg/kg
